Assay results published in patent publication US7514421B2, “Use of an IBAT inhibitor for the treatment of constipation” (Albireo AB, priority 2003, dated 2009).

Test system: constipated dog
Assay: Buenos dog model for constipation (low fibre/high protein diet, 20 g meat/kg dog/day)
Type: in vivo
Conditions: constipated dogs
From the text: As stated hereinbefore the compounds defined in the present invention are useful in the treatment of functional constipation and C-IBS. These properties may be assessed, for example, using models known in the art: • Buenos dog model for constipation, (Hepato-gasteroenterology, 1980, 27, 381-389).
Once constipation has been induced the animals can be dosed with an IBAT inhibitor to asses the ability of the IBAT inhibitor to relieve the constipation.
The following data was generated using the Buenos dog model (method described in the publication above) with the modification that the dogs were given 20 g meat/kg dog/day. The result is calculated as mean value of the increase of faeces during the three treatment days subtracted with the entry value (day before start of treatment with the IBAT inhibitor). The dogs were judge as constipation if there faeces amount per day was below 30 gram.

Structure (SMILES) | Result: mean increase of faeces during the three treatment days subtracted with the entry value (dose 1.5 μmol/kg, 2 animals) | Result: mean increase of faeces during the three treatment days subtracted with the entry value (dose 1.5 μmol/kg, 2 animals, listed as compound 3) | Result: mean increase of faeces during the three treatment days subtracted with the entry value (dose 1.5 μmol/kg, 2 animals, listed as compound 2) | Result: mean increase of faeces during the three treatment days subtracted with the entry value (dose 5 μmol/kg, 3 animals) | Result: mean increase of faeces during the three treatment days subtracted with the entry value (dose 5 μmol/kg, 3 animals, listed as compound 1)
CCCCC1(CCCC)CN(c2ccccc2)c2cc(SC)c(OCC(=O)N[C@@H](C(=O)N[C@H](C(=O)O)C(C)C)c3ccc(O)cc3)cc2S(=O)(=O)N1 [Compound 3, 1,1-Dioxo-3,3-dibutyl-5-phenyl-7-methylthio-8-(N-{(R)-α-[N-((S)-1-carboxy-2-methylpropyl)carbamoyl]-4-hydroxybenzyl}carbamoylmethoxy)-2,3,4,5-tetrahydro-1,2,5-benzothiadiazepine] | 39 ± 2 g/day | 39 ± 2 g/day |  |  | 
CCCCC1(CCCC)CN(c2ccccc2)c2cc(SC)c(OCC(=O)N[C@@H](C(=O)N[C@H](C(=O)O)[C@@H](C)O)c3ccc(O)cc3)cc2S(=O)(=O)N1 [Compound 2, 1,1-Dioxo-3,3-dibutyl-5-phenyl-7-methylthio-8-(N-{(R)-α-[N-((S)-1-carboxy-2-(R)-hydroxypropyl)carbamoyl]-4-hydroxybenzyl}carbamoylmethoxy)-2,3,4,5-tetrahydro-1,2,5-benzothiadiazepine] | 23 ± 11 g/day |  | 23 ± 11 g/day |  | 
CCCCC1(CCCC)CN(c2ccccc2)c2cc(SC)c(OCC(=O)N[C@@H](C(=O)NCCS(=O)(=O)O)c3ccc(O)cc3)cc2S(=O)(=O)N1 [Compound 1, 1,1-Dioxo-3,3-dibutyl-5-phenyl-7-methylthio-8-(N-{(R)-α-[N-(2-sulphoethyl)carbamoyl]-4-hydroxybenzyl}carbamoylmethoxy)-2,3,4,5-tetrahydro-1,2,5-benzothiadiazepine] |  |  |  | 38 ± 7 g/day | 38 ± 7 g/day
